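Cells were grown in 96-well plates and exposed to each compound for 48 hours at five concentrations; endpoints were interpolated linearly between bracketing concentrations, or set to the highest concentration if not reached. Abbreviation: GI50, concentration required for 50% inhibition of growth.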 Calls of active or inactive are those of the source. Rule as the data show it: active = GI50 up to about 1.1 µM and inactive = higher.
Legend:
Assay in all cases: inhibition of tumour cell growth, NCI panel, 48 h
[1] = system: 786-0
[2] = system: A498
[3] = system: A549
[4] = system: ACHN
[5] = system: BT-549
[6] = system: CAKI-1
[7] = system: COLO 205
[8] = system: DU-145
[9] = system: EKVX
[10] = system: HCC 2998
[11] = system: HCT-116
[12] = system: HCT-15
[13] = system: HOP-62
[14] = system: HOP-92
[15] = system: HT-29
[16] = system: Hs-578T
[17] = system: IGROV-1
[18] = system: KM12
[19] = system: LOX IMVI
[20] = system: M14
[21] = system: MCF7
[22] = system: MDA-MB-231
[23] = system: MDA-MB-435
[24] = system: MDA-N
[25] = system: MOLT-4
[26] = system: NCI-H226
[27] = system: NCI-H23
[28] = system: NCI-H460
[29] = system: NCI-H522
[30] = system: OVCAR-3
[31] = system: OVCAR-4
[32] = system: OVCAR-5
[33] = system: OVCAR-8
[34] = system: PC-3
[35] = system: RPMI-8226
[36] = system: RXF 393
[37] = system: SF-268
[38] = system: SF-295
[39] = system: SF-539
[40] = system: SK-MEL-28
[41] = system: SK-MEL-2
[42] = system: SK-MEL-5
[43] = system: SK-OV-3
[44] = system: SN12C
[45] = system: SNB-19
[46] = system: SNB-75
[47] = system: SW-620
[48] = system: T47D
[49] = system: TK-10
[50] = system: U-251
[51] = system: UACC-257
[52] = system: UACC-62
[53] = system: UO-31
[54] = system: CCRF-CEM
[55] = system: HL-60
[56] = system: K562
[57] = system: Malme-3M
[58] = system: SR
[59] = system: NCI/ADR-RES

Measured: GI50

CN(C)C(=O)C(NCCO)c1ccccc1 (stereo not given)
inactive: [1] > 100 µM | [2] > 100 µM | [3] > 100 µM | [4] > 100 µM | [5] > 100 µM | [6] > 100 µM | [7] > 100 µM | [8] > 100 µM | [9] > 100 µM | [10] > 100 µM | [11] 53.7 µM | [13] > 100 µM | [14] > 100 µM | [15] 57.7 µM | [16] > 100 µM | [17] 72.6 µM | [18] 85.7 µM | [19] > 100 µM | [20] > 100 µM | [21] > 100 µM | [22] > 100 µM | [23] 79.4 µM | [24] > 100 µM | [25] 22.4 µM | [26] > 100 µM | [27] 83 µM | [28] > 100 µM | [29] > 100 µM | [30] 62.1 µM | [31] > 100 µM | [32] > 100 µM | [33] > 100 µM | [34] 89.1 µM | [35] 27.9 µM | [36] > 100 µM | [37] > 100 µM | [38] > 100 µM | [39] > 100 µM | [40] > 100 µM | [41] > 100 µM | [42] 52.8 µM | [43] > 100 µM | [44] > 100 µM | [45] > 100 µM | [46] > 100 µM | [47] > 100 µM | [48] 53.3 µM | [49] > 100 µM | [50] 90.6 µM | [51] 48.3 µM | [52] 61.2 µM | [53] > 100 µM
> 100 µM: [12]

C/C(=C1/N=C(c2ccccc2)OC1=O)c1cccs1
inactive: [1] 76 µM | [2] > 100 µM | [3] 64.7 µM | [4] > 100 µM | [5] > 100 µM | [6] > 100 µM | [54] > 100 µM | [7] > 100 µM | [8] > 100 µM | [9] > 100 µM | [10] > 100 µM | [11] > 100 µM | [55] > 100 µM | [13] 55 µM | [14] > 100 µM | [15] > 100 µM | [16] 73.5 µM | [17] 63.7 µM | [56] > 100 µM | [18] > 100 µM | [19] > 100 µM | [20] > 100 µM | [21] > 100 µM | [22] 66.7 µM | [23] > 100 µM | [24] > 100 µM | [25] > 100 µM | [57] > 100 µM | [26] > 100 µM | [27] > 100 µM | [28] > 100 µM | [29] 59.8 µM | [30] > 100 µM | [31] 37.3 µM | [32] > 100 µM | [33] 68.9 µM | [34] > 100 µM | [35] > 100 µM | [36] > 100 µM | [37] > 100 µM | [38] > 100 µM | [39] > 100 µM | [40] > 100 µM | [41] > 100 µM | [42] > 100 µM | [43] > 100 µM | [44] > 100 µM | [45] > 100 µM | [46] 76.4 µM | [58] > 100 µM | [47] > 100 µM | [48] > 100 µM | [49] > 100 µM | [50] > 100 µM | [51] > 100 µM | [52] > 100 µM
> 100 µM: [12]

CCC1=NC(N/N=C/c2ccco2)=N/C1=C\c1ccco1
inactive: [1] > 100 µM | [2] > 100 µM | [3] > 100 µM | [4] > 100 µM | [5] > 100 µM | [6] > 100 µM | [54] > 100 µM | [7] > 100 µM | [8] > 100 µM | [9] > 100 µM | [10] > 100 µM | [11] > 100 µM | [55] > 100 µM | [13] > 100 µM | [14] > 100 µM | [15] > 100 µM | [16] > 100 µM | [17] > 100 µM | [56] 62.1 µM | [18] > 100 µM | [19] > 100 µM | [20] > 100 µM | [22] > 100 µM | [23] 52 µM | [24] > 100 µM | [25] > 100 µM | [57] > 100 µM | [26] > 100 µM | [27] > 100 µM | [28] 52 µM | [29] > 100 µM | [59] > 100 µM | [31] > 100 µM | [32] > 100 µM | [33] > 100 µM | [34] > 100 µM | [35] 40.9 µM | [36] > 100 µM | [37] > 100 µM | [38] > 100 µM | [40] > 100 µM | [41] > 100 µM | [42] > 100 µM | [43] > 100 µM | [44] > 100 µM | [45] > 100 µM | [58] > 100 µM | [47] > 100 µM | [48] > 100 µM | [49] > 100 µM | [50] > 100 µM | [51] > 100 µM | [52] > 100 µM | [53] > 100 µM
> 100 µM: [12]

Source: ChEMBL document CHEMBL1201862, “PubChem BioAssay data set” (2004)
